Assay in all cases: DTP human tumour cell line panel, 48 h
The test system of test [1] is BT-549 breast.
Test [2] relates to HOP-92 NSCLC.
In test [3] the test system is HCC-2998 colon.
Test [4] deals with A549 NSCLC.
Test [5] concerns OVCAR-5 ovarian.
Test [6] relates to PC-3 prostate.
The subject of test [7] is SNB-75 CNS.
For test [8], the system named is EKVX NSCLC.
Test [9] deals with OVCAR-4 ovarian.
Test [10] relates to K-562 leukemia.

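Dose response: 5 concentrations. Exposure: 48 h. Format: 96-well plates. Endpoint: linear interpolation; highest concentration if not reached. GI50 marks 50% less growth. Definition used: TGI = concentration required for complete inhibition of growth.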

What is called GI50 is the concentration that inhibits growth by half. As a reminder, the TGI is the concentration giving total growth inhibition. A lower TGI goes with greater sensitivity of the cells.

As to `CCCCCCCCCC[C@@H](O)[C@H]1CC[C@@H]([C@H]2CC[C@H]([C@H](O)CCCCCCCCCC[C@@H]3CC(CC(C)=O)C(=O)O3)O2)O1` (stereo partly specified), the GI50 in [1] was 23.7 µM; in test [4], 14.3 µM; in [6], 25.4 µM; in [7], 72 µM; in [8] it was 19.2 µM. Also, the concentration for total growth inhibition (TGI) is 63.4 µM in test [2]; 62.5 µM in test [3]; above 100 µM in test [4]; above 100 µM in test [5]; 99.4 µM in test [6]; above 100 µM in test [8]. The total growth inhibition concentration (TGI) in test [9] was found to be 85.5 µM.

Consider `C=CC(=O)N1C/C(=C\c2ccc(F)cc2)C(=O)/C(=C/c2ccc(F)cc2)C1`, for which the TGI was 1.2 µM in test [1]; 8.62 µM in test [2]; 1.15 µM in [3]; 4.47 µM in test [4]; above 100 µM in test [10]; 2.7 µM in test [5]. In addition, the concentration for total growth inhibition (TGI) in [6] turned out to be 1.79 µM; in [7], 1.94 µM; in test [8], 3.88 µM; in test [9], 1.85 µM.

In the case of `C1CN(C23OC4(N5CCOCC5)C5C6CC(C7C6C4C72)C53)CCO1` (stereo unspecified), the total growth inhibition concentration (TGI) in test [1], in test [2], in [3], in test [4], in [10] and in test [5] was above 100 µM throughout. In addition, the TGI in test [6], in test [7], in test [8] and in test [9] was above 100 µM in each case.

As for `CCSc1nn(-c2c3ccccc3nc3ccccc23)c(=S)s1`, the TGI in [1], in test [2], in test [3], in test [4], in test [10] and in test [5] was above 100 µM in each case. Further, the TGI in test [6], in test [7], in [8] and in [9] was above 100 µM each time.

Consider `CC1(C)CN=C(c2ccc3ccccc3c2O)N1`, for which the total growth inhibition concentration (TGI) in test [1], in test [2], in test [3], in [4], in test [10] and in [5] was above 100 µM each time. For the same compound, the concentration for total growth inhibition (TGI) in test [6], in [7], in test [8] and in test [9] was above 100 µM in each case.

For `CC(CN(C)C)C(O)(c1ccccc1)c1ccccc1` (stereo unspecified), the TGI in [1] is above 100 µM; in test [2], above 100 µM; in test [3] it was 93.2 µM; in test [4] it was above 100 µM; in test [10], above 100 µM; in test [5], above 100 µM. Moreover, the TGI in test [6], in test [7], in [8] and in test [9] was above 100 µM each time.

With `CCOC(=O)c1c(C)n(CCN2CCN(C)CC2)c2ccc(OC)cc12`, the concentration for total growth inhibition (TGI) in test [1] was above 100 µM; in test [2], 80.5 µM; in test [3], 30.7 µM; in [4], above 100 µM; in test [10] it was 45.8 µM; in test [5], above 100 µM. Further, the TGI in test [6], in test [7], in test [8] and in [9] was above 100 µM each time.

For the compound `NC(=O)CN1CCN(c2nc(N3CCCC3)c3nc(Cl)c(NCc4ccccc4)nc3n2)CC1`, the TGI in test [1] is 19.5 µM; in [2] it was 20.6 µM; in test [3], 15.4 µM; in test [4], 35.2 µM; in test [10], 21 µM; in [5], 17.9 µM. Further, the total growth inhibition concentration (TGI) in test [6] is 24.9 µM; in test [7], 24.4 µM; in test [8] it was 30.3 µM; in test [9] it was 48.2 µM.

Regarding `C[C@@H](CC(O)C(O)C(C)(C)O)C1CCC23CC12CCC1[C@@]2(C)CCC(=O)C(C)(C)C2CC(OC2OC(CO)C(O)C(O)C2O)[C@]13C` (stereo partly specified), the concentration for total growth inhibition (TGI) in test [1], in test [2], in test [3], in test [4], in test [10] and in [5] was above 10 µM throughout. Further, the concentration for total growth inhibition (TGI) in [6], in [7], in test [8] and in [9] was above 10 µM in each case.

As for `CCCS(=O)OC1C(C2COC(C)(C)O2)OC2OC(C)(C)OC21` (stereo unspecified), the TGI in test [1] is 24.5 µM; in [2], 22.8 µM; in test [3], 32.6 µM; in test [4], 49.6 µM; in test [10], above 100 µM; in test [5], 26.1 µM. For the same compound, the total growth inhibition concentration (TGI) was 24 µM in [6], above 48.8 µM in test [7], 32 µM in test [8] and 34.7 µM in [9].

Take `CCCCC[C@@H]1OC(=O)[C@@]2(CC3c4ccccc4C2c2ccccc23)[C@H]1C(=O)OC`: the TGI in test [1], in test [2], in test [3], in test [4], in test [10] and in test [5] was above 100 µM throughout. For the same compound, the total growth inhibition concentration (TGI) in [6], in test [8] and in test [9] was above 100 µM each time.

As for `C=C1C(=O)O[C@H]2[C@@H](O)[C@H](C)CCC/C(C)=C/CC[C@@]3(C)O[C@@H]3C[C@@H]12`, the concentration for total growth inhibition (TGI) is 14.5 µM in [1]; 8.04 µM in [2]; 26 µM in [3]; above 60.9 µM in test [4]; above 100 µM in test [10]; 34.8 µM in test [5]. For the same compound, the concentration for total growth inhibition (TGI) in test [6] was above 57.6 µM; in test [7], 29.6 µM; in test [8], 19 µM; in [9], 19.8 µM.

Regarding `Cc1nc2ccccc2n1CCc1nc2ccccc2[nH]1`, the TGI in test [1], in test [2], in test [3], in [4], in test [10] and in test [5] was above 100 µM throughout. The concentration for total growth inhibition (TGI) in [6], in test [7], in test [8] and in test [9] was above 100 µM throughout.

For the origin of these results see PubChem BioAssay (NCI).
